The term IC50 denotes the concentration needed to halve the response being measured. High values mean lower potency, low ones higher potency. A word on the EC50: it is the concentration needed to bring the measured effect to its halfway point. High values mean a less potent agent, low ones a more potent agent. One may read the half-life as the time in which the quantity being followed falls by half. Low readings indicate fast loss, high ones slow loss. For orientation: bioavailability means dose-corrected exposure relative to a reference, in per cent. For orientation: AUC means concentration integrated over time.

These results are taken from ChEMBL document CHEMBL1146919, “Triazolo-tetrahydrofluorenones as selective estrogen receptor beta agonists” (Bioorg Med Chem Lett, 2006).

Series [1] addresses T1, Estrogen receptor (Homo sapiens, UniProt P03372).
T1 sequence (P03372 whole entry): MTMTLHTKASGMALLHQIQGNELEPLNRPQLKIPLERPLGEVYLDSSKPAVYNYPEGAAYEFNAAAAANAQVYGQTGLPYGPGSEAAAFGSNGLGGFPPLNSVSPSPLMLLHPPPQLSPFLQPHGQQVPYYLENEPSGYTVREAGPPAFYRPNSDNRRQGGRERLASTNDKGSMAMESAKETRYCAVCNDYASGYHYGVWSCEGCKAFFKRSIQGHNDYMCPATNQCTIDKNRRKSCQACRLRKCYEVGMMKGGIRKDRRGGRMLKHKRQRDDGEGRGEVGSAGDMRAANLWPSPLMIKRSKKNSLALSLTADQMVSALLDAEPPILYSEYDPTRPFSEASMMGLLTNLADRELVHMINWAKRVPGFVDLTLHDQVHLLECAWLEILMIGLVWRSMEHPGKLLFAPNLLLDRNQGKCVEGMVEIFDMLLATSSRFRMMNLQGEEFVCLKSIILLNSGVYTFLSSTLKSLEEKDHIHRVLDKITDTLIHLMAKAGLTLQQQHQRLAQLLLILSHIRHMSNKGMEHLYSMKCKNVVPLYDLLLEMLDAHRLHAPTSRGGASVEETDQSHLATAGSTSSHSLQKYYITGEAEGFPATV
Description: Binding affinity to human recombinant ERalpha by scintillation proximity assay

In series [2] the target is T2, Estrogen receptor beta (Homo sapiens, UniProt Q92731).
Description: Binding affinity to human recombinant ERbeta by scintillation proximity assay
The target in series [3] is T1, Estrogen receptor. The source holds these as a separate data set.
Description: Agonist activity at human recombinant ERalpha expressed in HEK293 cells by alkaline phosphatase reporter gene transactivation assay
For series [4], the target named is T2, Estrogen receptor beta. This is another data set of the same source.
Description: Agonist activity at human recombinant ERbeta expressed in HEK293 cells by alkaline phosphatase reporter gene transactivation assay
A short description of series [5]: Plasma clearance in Sprague-Dawley rat at 1 mg/kg, iv and 2 mg/kg, po. Format: ADME, organism-based.
Series [6] in a line: Half life in Sprague-Dawley rat at 1 mg/kg, iv and 2 mg/kg, po. Format: ADME, organism-based. To be noted: in vivo.
Series [7] is described as follows: Bioavailability in Sprague-Dawley rat at 1 mg/kg, iv and 2 mg/kg, po. The format is ADME, organism-based. To be noted: in vivo.
The nature of series [8]: AUC in Sprague-Dawley rat at 1 mg/kg, iv. To be noted: plasma. Details: dose 1 mg/kg, route intravenous. Format: ADME, organism-based.

T2 sequence (Q92731 whole entry): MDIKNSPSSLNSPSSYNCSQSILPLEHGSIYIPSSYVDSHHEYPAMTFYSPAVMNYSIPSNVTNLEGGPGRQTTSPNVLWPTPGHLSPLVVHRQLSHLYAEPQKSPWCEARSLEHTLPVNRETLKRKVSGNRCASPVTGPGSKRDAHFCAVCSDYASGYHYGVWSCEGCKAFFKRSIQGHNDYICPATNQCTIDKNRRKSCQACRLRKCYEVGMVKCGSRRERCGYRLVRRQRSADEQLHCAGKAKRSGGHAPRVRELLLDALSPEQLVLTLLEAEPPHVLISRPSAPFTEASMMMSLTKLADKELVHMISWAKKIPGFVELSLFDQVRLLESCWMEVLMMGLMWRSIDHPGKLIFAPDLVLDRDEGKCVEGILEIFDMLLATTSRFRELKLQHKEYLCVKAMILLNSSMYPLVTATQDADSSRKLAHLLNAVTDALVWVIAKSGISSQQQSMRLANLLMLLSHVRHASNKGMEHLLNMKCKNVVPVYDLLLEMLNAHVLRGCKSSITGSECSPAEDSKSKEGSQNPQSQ

For `CCCC1=C2c3ccc4nn[nH]c4c3CC2(CC)CCC1=O` (stereo not given), the IC50 on Estrogen receptor [1] worked out at 352 nM; against Estrogen receptor beta [2] it was 11 nM. For the same compound, the EC50 is 794 nM on Estrogen receptor [3] and 14 nM on Estrogen receptor beta [4].
With `CCCCC12CCC(=O)C(CC)=C1c1ccc3[nH]nnc3c1C2` (racemic), in series [5], the clearance was 31.6 mL/min/kg. For the same compound, in series [6], the half-life was 2.9 h. The bioavailability in series [7] turned out to be 85%. Besides, the AUC in series [8] is 1.7 µM·h.
On to `CCC1=C2c3ccc4[nH]nnc4c3CC2(CC)CCC1=O` (stereo not given), for which the IC50 against Estrogen receptor [1] is 1320 nM; against Estrogen receptor beta [2], 18 nM. The figures for the EC50 at Estrogen receptor [3] and at Estrogen receptor beta [4] were 460 nM and 7.3 nM, respectively.
Regarding `CCCC[C@@]12CCC(=O)C(c3cccs3)=C1c1ccc3nn[nH]c3c1C2`, the IC50 was 34 nM at Estrogen receptor [1] and 2.3 nM on Estrogen receptor beta [2]. Moreover, the figures for the EC50 on Estrogen receptor [3] and on Estrogen receptor beta [4] were 79 nM and 0.96 nM, respectively.
Take `CCCCC1=C2c3ccc4[nH]nnc4c3CC2(CC)CCC1=O` (stereo not given): the IC50 on Estrogen receptor [1] was 1130 nM; against Estrogen receptor beta [2], 43 nM. The EC50 turned out to be 681 nM at Estrogen receptor [3] and 60 nM on Estrogen receptor beta [4].
The compound `CCCC[C@]12CCC(=O)C(CC)=C1c1ccc3[nH]nnc3c1C2` gave a clearance in series [5] of 18.3 mL/min/kg. This compound had a half-life in series [6] of 1.2 h. The compound further displayed a bioavailability in series [7] of 99%. This compound also returned an AUC in series [8] of 3 µM·h. In addition, the 50% inhibitory concentration (IC50) was 4750 nM at Estrogen receptor [1] and 242 nM against Estrogen receptor beta [2]. Besides, the EC50 was determined as 391 nM at Estrogen receptor [3] and 28 nM on Estrogen receptor beta [4].
Take `CCCC[C@@]12CCC(=O)C(Br)=C1c1ccc3[nH]nnc3c1C2`: in series [5], the clearance came out at 24.4 mL/min/kg. Besides, the half-life in series [6] is 2.9 h. Moreover, in series [7], the bioavailability is 36%. The AUC in series [8] is 1.9 µM·h. Moreover, the values for the IC50 against Estrogen receptor [1] and against Estrogen receptor beta [2] were 1910 nM and 5.7 nM, respectively. Also, the EC50 on Estrogen receptor [3] was determined as 519 nM; on Estrogen receptor beta [4], 5.5 nM.
Regarding `CCCC12CCC(=O)C(CC)=C1c1ccc3[nH]nnc3c1C2` (stereo not given), the IC50 at Estrogen receptor [1] came out at 612 nM; against Estrogen receptor beta [2], 18 nM. The half-maximal effective concentration (EC50) on Estrogen receptor [3] turned out to be 120 nM; on Estrogen receptor beta [4] it was 7.7 nM.
The like results for `CCC12CCC(=O)C(Br)=C1c1ccc3nn[nH]c3c1C2` (stereo not given) were, in that order, 5170 nM, 60 nM, 1270 nM and 46 nM.
In series [5], `CCCCC12CCC(=O)C(Br)=C1c1ccc3nn[nH]c3c1C2` (racemic) had a clearance of 102 mL/min/kg. The half-life in series [6] was 1.5 h. In series [7], the bioavailability was found to be 0%. For the same compound, in series [8], the AUC amounted to 0.5 µM·h. Besides, the figures for the IC50 against Estrogen receptor [1] and against Estrogen receptor beta [2] were 141 nM and 1.8 nM, respectively. For the same compound, the EC50 at Estrogen receptor [3] worked out at 94 nM; on Estrogen receptor beta [4], 4 nM.
Regarding `CCCCC12CCC(=O)C(CCC)=C1c1ccc3[nH]nnc3c1C2` (stereo not given), the IC50 against Estrogen receptor [1] is 1250 nM; against Estrogen receptor beta [2], 58 nM. The half-maximal effective concentration (EC50) was determined as 1180 nM at Estrogen receptor [3] and 96 nM on Estrogen receptor beta [4].
The like results for `CCCC[C@@]12CCC(=O)C(C(F)(F)F)=C1c1ccc3[nH]nnc3c1C2` were, in that order, 896 nM, 3.2 nM, 169 nM and 2.3 nM.
As for `CC[C@@]12CCC(=O)C(C(F)(F)F)=C1c1ccc3nn[nH]c3c1C2`, the clearance in series [5] worked out at 108 mL/min/kg. Besides, the half-life in series [6] was 0.4 h. For the same compound, the bioavailability in series [7] worked out at 59%. Besides, the AUC in series [8] was determined as 0.6 µM·h. The IC50 against Estrogen receptor [1] came out at 1680 nM; against Estrogen receptor beta [2], 11 nM. Further, the EC50 at Estrogen receptor [3] is 241 nM; at Estrogen receptor beta [4], 4.9 nM.
For the compound `CCC1=C2c3ccc4[nH]nnc4c3C[C@@]2(CC)CCC1=O`, the IC50 is more than 10000 nM on Estrogen receptor [1] and 1520 nM against Estrogen receptor beta [2].
For `CCCCC12CCC(=O)C(c3ccco3)=C1c1ccc3[nH]nnc3c1C2` (stereo not given), the figures for the IC50 at Estrogen receptor [1] and at Estrogen receptor beta [2] were 1120 nM and 7.4 nM, respectively. Besides, the EC50 turned out to be 870 nM on Estrogen receptor [3] and 6.5 nM on Estrogen receptor beta [4].
`CCCC1=C2c3ccc4[nH]nnc4c3CC2(CCC)CCC1=O` (stereo not given): the values for the half-maximal inhibitory concentration (IC50) on Estrogen receptor [1] and against Estrogen receptor beta [2] were 344 nM and 23 nM, respectively.
As for `CCCC[C@@]12CCC(=O)C(CC)=C1c1ccc3nn[nH]c3c1C2`, the clearance in series [5] stood at 62 mL/min/kg. The half-life in series [6] was 0.4 h. For the same compound, the bioavailability in series [7] came to 28%. For the same compound, the AUC in series [8] is 0.9 µM·h. Moreover, the IC50 was determined as 220 nM on Estrogen receptor [1] and 5.1 nM on Estrogen receptor beta [2]. Moreover, the EC50 stood at 30 nM at Estrogen receptor [3] and 0.4 nM at Estrogen receptor beta [4].
As for `CCCC12CCC(=O)C(Br)=C1c1ccc3nn[nH]c3c1C2` (stereo not given), the IC50 against Estrogen receptor [1] is 3300 nM; against Estrogen receptor beta [2] it was 43 nM. The half-maximal effective concentration (EC50) at Estrogen receptor [3] was found to be 561 nM; on Estrogen receptor beta [4], 18 nM.
Regarding `CCC12CCC(=O)C(C)=C1c1ccc3[nH]nnc3c1C2` (stereo not given), the IC50 on Estrogen receptor [1] worked out at 1900 nM; against Estrogen receptor beta [2] it was 24 nM. The EC50 amounted to 671 nM at Estrogen receptor [3] and 20 nM on Estrogen receptor beta [4].
On to `CCC12CCC(=O)C(c3ccc(O)cc3)=C1c1ccc3[nH]nnc3c1C2` (stereo not given), for which the IC50 against Estrogen receptor [1] was found to be 81 nM; at Estrogen receptor beta [2] it was 11 nM. Moreover, the results for the EC50 at Estrogen receptor [3] and on Estrogen receptor beta [4] were 901 nM and 4.3 nM, respectively.
Turning to `CCC1=C2c3ccc4[nH]nnc4c3C[C@]2(CC)CCC1=O`, the clearance in series [5] is 64.8 mL/min/kg. The half-life in series [6] is 0.3 h. The bioavailability in series [7] is 70%. The same compound had an AUC in series [8] of 1 µM·h. Also, the concentration for half-maximal inhibition (IC50) against Estrogen receptor [1] was 647 nM; against Estrogen receptor beta [2] it was 5.7 nM. Besides, the EC50 is 140 nM on Estrogen receptor [3] and 5.8 nM on Estrogen receptor beta [4].
`CCCCC12CCC(=O)C(C)=C1c1ccc3[nH]nnc3c1C2` (stereo not given): the results for the IC50 against Estrogen receptor [1] and on Estrogen receptor beta [2] were 5980 nM and 27 nM, respectively. This compound came in with an EC50 on Estrogen receptor beta [4] of 20 nM.
For `CCC12CCC(=O)C=C1c1ccc3nn[nH]c3c1C2` (stereo not given), the 50% inhibitory concentration (IC50) is more than 10000 nM against Estrogen receptor [1] and 3040 nM at Estrogen receptor beta [2]. For the same compound, the values for the EC50 at Estrogen receptor [3] and on Estrogen receptor beta [4] were 1230 nM and 475 nM, respectively.
The like results for `CCCC12CCC(=O)C(C)=C1c1ccc3nn[nH]c3c1C2` (stereo not given) were, in that order, 6170 nM, 81 nM, 449 nM and 17 nM.
